Measured values as given in ChEMBL document CHEMBL4507268 (2021).

Experiments:
Details in all cases: Compound concentration 1.0 uM
[1] = biological target: cAMP-dependent protein kinase catalytic subunit beta (Homo sapiens) (UniProt P22694)
[2] = biological target: T1, Ephrin type-B receptor 4 (Homo sapiens) (UniProt P54760)
T1 sequence (whole entry): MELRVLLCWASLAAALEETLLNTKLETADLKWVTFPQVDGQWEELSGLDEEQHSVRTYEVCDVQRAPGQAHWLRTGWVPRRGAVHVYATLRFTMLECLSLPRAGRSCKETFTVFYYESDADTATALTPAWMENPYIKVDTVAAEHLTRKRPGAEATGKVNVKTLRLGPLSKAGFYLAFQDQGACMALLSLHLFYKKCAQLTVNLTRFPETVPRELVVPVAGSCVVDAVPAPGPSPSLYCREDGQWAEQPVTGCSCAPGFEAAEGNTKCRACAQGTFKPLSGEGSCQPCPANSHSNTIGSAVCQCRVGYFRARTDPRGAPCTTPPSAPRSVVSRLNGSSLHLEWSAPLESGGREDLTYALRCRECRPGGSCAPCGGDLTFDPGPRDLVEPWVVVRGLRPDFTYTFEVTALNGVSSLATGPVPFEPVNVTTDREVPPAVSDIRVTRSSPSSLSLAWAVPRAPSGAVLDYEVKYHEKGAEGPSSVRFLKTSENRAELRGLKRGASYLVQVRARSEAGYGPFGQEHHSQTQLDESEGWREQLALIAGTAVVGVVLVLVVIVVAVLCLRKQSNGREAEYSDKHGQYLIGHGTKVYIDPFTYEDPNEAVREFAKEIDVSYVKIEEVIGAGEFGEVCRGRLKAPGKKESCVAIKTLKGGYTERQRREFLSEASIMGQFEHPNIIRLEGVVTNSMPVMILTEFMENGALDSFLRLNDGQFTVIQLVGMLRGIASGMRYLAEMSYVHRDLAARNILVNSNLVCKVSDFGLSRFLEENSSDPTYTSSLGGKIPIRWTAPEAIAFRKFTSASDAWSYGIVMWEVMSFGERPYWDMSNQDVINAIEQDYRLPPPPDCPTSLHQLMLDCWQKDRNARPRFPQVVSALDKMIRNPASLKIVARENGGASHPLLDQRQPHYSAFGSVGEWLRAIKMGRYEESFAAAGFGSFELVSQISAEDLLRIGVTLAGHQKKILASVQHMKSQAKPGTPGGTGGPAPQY

[3] = biological target: Insulin-like growth factor 1 receptor (Homo sapiens) (UniProt P08069)
Insulin-like growth factor 1 receptor (Homo sapiens), sequence (P08069 31-736 limits assumed): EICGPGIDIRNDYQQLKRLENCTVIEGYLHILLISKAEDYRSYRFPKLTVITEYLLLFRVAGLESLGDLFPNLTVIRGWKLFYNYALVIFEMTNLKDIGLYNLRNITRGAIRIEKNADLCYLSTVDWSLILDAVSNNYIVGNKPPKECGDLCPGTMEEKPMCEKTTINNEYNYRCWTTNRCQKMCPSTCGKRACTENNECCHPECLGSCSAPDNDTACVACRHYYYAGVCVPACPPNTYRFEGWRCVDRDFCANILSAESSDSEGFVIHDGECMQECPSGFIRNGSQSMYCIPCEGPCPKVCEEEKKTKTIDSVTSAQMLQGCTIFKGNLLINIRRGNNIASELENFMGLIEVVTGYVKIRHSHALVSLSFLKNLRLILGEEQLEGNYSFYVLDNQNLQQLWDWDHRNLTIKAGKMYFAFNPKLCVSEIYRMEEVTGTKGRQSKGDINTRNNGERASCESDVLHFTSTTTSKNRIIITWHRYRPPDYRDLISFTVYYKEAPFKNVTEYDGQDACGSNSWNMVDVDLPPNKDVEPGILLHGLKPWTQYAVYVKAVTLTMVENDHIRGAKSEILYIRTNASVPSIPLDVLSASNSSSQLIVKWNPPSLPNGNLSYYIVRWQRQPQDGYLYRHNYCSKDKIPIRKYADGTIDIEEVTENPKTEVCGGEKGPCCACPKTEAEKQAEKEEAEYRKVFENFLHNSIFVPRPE
Insulin-like growth factor 1 receptor (Homo sapiens), sequence (P08069 741-1367 limits assumed): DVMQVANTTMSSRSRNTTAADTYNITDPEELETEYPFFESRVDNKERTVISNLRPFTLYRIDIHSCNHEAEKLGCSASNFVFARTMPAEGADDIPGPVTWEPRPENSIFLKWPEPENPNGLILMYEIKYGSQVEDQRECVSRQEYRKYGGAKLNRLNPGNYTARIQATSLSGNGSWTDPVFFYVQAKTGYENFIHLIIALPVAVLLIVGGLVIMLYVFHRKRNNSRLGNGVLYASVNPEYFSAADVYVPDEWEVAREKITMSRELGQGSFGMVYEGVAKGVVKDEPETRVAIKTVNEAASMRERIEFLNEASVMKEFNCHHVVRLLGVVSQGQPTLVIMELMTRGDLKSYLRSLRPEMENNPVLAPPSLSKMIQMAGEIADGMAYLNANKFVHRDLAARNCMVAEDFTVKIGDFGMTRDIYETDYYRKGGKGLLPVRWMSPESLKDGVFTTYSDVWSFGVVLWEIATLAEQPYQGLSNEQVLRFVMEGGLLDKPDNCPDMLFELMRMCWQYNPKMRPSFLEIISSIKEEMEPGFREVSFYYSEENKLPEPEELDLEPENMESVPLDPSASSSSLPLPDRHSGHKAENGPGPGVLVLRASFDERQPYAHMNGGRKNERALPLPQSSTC

[4] = biological target: Ephrin type-A receptor 4 (Homo sapiens) (UniProt P54764)
Ephrin type-A receptor 4 (Homo sapiens), sequence (P54764 whole entry): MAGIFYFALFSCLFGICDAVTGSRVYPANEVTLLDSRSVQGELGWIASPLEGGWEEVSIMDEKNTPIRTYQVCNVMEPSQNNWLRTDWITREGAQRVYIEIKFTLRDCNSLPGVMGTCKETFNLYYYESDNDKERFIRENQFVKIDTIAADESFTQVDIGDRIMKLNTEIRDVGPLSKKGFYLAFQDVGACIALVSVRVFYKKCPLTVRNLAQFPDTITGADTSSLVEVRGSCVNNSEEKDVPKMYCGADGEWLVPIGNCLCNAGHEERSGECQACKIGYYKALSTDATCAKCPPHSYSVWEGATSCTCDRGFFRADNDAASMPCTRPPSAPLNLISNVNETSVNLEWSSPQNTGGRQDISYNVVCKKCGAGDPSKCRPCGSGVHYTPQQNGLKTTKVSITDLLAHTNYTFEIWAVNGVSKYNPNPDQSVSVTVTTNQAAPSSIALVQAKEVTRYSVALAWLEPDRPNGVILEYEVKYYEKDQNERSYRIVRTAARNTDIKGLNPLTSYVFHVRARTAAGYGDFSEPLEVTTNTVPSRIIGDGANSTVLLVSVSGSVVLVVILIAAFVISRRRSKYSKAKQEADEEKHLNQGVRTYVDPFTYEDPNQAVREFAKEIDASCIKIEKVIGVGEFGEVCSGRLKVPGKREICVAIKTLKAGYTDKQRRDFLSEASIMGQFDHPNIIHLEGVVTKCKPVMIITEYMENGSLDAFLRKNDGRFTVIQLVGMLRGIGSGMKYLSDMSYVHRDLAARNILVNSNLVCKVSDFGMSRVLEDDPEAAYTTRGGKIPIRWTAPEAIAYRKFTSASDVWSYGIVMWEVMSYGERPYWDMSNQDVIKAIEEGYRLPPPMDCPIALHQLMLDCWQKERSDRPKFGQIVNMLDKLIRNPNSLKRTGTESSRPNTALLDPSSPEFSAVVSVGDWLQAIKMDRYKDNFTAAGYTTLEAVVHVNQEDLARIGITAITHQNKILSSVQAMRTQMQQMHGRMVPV

[5] = biological target: Serine/threonine-protein kinase SIK1 (Homo sapiens) (UniProt P57059)
Serine/threonine-protein kinase SIK1 (Homo sapiens), sequence (P57059 whole entry): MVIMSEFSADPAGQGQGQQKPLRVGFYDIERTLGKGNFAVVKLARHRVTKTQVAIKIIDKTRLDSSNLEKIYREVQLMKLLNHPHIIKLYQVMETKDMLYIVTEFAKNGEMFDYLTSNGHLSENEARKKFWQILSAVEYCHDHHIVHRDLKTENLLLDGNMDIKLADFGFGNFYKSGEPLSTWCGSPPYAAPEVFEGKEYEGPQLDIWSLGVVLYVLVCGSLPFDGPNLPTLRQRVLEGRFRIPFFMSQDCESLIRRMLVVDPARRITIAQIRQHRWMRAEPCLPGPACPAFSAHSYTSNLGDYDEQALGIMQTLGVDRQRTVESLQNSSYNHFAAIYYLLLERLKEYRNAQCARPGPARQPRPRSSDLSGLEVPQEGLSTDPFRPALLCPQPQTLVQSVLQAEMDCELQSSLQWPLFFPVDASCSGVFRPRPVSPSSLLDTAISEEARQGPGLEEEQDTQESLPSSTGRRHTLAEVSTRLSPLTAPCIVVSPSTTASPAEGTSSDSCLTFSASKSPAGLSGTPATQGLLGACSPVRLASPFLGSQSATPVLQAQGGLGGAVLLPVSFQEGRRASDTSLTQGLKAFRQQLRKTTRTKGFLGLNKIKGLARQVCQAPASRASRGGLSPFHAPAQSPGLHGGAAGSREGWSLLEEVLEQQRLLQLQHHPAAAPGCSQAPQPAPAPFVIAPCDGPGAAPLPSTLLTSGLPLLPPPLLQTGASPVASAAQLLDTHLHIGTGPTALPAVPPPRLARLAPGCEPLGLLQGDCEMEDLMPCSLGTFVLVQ

[6] = biological target: Tau-tubulin kinase 2 (Homo sapiens) (UniProt Q6IQ55)
Tau-tubulin kinase 2 (Homo sapiens), sequence (Q6IQ55 whole entry): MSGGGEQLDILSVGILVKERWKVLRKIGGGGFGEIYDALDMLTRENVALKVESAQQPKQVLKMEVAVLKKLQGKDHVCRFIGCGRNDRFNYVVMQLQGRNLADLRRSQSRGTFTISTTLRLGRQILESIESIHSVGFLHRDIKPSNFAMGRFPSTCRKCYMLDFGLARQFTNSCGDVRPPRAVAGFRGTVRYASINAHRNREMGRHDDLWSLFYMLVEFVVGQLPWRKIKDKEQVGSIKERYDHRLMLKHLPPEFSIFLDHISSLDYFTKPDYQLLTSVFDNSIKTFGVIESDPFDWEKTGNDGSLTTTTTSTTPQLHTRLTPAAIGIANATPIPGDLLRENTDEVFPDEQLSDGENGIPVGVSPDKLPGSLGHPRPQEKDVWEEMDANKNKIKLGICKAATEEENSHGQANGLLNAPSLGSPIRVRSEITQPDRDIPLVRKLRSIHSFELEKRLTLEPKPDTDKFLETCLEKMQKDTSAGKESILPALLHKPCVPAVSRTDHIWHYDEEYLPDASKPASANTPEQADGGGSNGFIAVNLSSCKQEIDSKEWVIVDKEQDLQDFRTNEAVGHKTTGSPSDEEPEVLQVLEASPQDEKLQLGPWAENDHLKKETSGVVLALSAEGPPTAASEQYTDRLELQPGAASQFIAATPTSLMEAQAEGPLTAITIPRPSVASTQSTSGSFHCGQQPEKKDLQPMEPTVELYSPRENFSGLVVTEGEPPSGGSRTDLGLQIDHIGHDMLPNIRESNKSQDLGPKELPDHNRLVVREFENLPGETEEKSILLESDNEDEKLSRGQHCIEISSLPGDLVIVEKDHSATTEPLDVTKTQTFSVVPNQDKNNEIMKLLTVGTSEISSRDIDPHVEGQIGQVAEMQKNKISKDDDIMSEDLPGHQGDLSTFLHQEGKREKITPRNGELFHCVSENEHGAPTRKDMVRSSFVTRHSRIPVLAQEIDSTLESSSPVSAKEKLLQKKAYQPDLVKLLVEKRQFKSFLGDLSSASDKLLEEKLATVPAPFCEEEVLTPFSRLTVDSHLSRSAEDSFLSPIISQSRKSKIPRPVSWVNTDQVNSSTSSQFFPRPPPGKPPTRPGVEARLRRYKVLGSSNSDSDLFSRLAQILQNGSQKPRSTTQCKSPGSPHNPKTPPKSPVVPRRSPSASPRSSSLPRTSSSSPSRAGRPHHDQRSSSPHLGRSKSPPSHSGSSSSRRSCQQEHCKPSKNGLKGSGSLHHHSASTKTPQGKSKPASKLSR

[7] = biological target: T2, Inhibitor of nuclear factor kappa-B kinase subunit epsilon (Homo sapiens) (UniProt Q14164)
T2 sequence (whole entry): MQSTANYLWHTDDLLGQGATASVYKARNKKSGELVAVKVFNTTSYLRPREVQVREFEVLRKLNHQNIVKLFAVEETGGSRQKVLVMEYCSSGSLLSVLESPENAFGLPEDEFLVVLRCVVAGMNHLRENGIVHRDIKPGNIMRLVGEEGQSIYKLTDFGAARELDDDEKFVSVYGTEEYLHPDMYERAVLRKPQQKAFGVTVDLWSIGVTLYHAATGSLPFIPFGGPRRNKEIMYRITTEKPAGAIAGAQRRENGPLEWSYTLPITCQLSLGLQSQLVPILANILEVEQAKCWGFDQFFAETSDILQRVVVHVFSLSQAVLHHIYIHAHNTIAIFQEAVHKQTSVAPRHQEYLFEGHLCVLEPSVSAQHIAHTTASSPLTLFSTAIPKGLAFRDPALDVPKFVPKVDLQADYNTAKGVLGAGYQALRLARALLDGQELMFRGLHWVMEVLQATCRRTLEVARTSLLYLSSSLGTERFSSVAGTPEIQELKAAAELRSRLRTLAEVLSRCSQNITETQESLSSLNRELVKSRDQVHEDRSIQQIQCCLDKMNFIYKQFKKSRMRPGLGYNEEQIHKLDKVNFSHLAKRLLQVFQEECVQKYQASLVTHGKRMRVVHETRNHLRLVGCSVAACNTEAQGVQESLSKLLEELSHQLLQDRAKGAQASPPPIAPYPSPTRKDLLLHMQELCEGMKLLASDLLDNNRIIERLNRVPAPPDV

[8] = biological target: Glycogen synthase kinase-3 beta (Homo sapiens) (UniProt P49841)
Glycogen synthase kinase-3 beta (Homo sapiens), sequence (P49841 whole entry, looked up): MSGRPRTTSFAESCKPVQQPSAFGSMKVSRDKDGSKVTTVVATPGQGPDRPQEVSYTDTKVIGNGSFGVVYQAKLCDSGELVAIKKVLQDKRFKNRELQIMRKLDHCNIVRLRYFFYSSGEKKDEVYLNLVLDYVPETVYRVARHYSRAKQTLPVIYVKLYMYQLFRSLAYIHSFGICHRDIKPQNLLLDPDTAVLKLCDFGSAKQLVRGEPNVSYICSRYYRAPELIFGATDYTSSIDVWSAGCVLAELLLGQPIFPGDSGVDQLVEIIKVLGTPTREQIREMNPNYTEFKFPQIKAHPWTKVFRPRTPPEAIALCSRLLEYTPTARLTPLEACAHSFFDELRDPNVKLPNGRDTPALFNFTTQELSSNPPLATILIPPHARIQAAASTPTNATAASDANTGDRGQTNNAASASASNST

[9] = biological target: T3, Tyrosine-protein kinase Mer (Homo sapiens) (UniProt Q12866)
T3 sequence (whole entry): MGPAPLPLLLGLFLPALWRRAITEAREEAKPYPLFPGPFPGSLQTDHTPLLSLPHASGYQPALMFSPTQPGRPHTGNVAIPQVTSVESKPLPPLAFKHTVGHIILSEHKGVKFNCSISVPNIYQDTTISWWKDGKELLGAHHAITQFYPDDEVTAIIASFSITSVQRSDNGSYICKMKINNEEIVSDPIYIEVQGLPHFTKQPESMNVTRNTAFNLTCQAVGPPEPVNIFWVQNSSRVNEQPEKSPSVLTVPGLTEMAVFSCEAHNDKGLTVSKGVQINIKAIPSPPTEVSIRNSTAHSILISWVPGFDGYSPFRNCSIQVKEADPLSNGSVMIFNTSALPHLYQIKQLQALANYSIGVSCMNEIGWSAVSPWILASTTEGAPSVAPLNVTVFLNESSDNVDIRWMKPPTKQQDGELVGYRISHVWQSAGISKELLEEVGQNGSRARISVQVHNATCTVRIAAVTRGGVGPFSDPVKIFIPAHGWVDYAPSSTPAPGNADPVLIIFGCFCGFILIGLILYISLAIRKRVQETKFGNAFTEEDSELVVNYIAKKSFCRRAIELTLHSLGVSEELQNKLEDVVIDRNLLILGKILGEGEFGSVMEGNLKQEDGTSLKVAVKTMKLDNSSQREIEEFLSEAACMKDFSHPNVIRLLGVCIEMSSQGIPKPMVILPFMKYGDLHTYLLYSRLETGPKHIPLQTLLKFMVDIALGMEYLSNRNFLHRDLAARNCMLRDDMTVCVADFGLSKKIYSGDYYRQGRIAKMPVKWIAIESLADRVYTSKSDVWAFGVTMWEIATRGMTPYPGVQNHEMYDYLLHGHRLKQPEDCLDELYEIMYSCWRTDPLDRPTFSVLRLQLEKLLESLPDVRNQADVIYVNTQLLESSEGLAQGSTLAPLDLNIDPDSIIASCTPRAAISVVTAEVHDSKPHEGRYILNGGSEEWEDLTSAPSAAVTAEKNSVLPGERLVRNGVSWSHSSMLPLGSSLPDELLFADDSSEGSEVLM

Measured: % residual kinase activity

CN1CCN(c2cnc3c(C4CCN(C(=O)c5ccc(OC(F)(F)F)cc5N)CC4)ncnc3c2)CC1 [BAY-885]
inactive: [1] 89% | [2] 103% | [3] 107% | [4] 82% | [5] 99% | [6] 98% | [7] 107% | [8] 99% | [9] 91%
